# From publication PMC5218480 (PLoS ONE, 2017)
# Test system: MV-4-11 cells
# Assay: Gene expression microarray analysis (Affymetrix PrimeView) and GSEA
# Assay type: cell-based, human
# Design: RFU PODN (11730768_x_at) / Fold change /veh PODN (11730768_x_at) / RFU LINC00158 (11744669_a_at) / Fold change /veh LINC00158 (11744669_a_at) / RFU DUSP10 (11751237_a_at) / Fold change /veh DUSP10 (11751237_a_at) / RFU ID3 (11757404_x_at) / Fold change /veh ID3 (11757404_x_at) / RFU PLEKHG5 (11737974_s_at) / Fold change /veh PLEKHG5 (11737974_s_at) / RFU LRRC4B (11730491_at) / Fold change /veh LRRC4B (11730491_at) / RFU GIMAP4 (11747438_a_at) / Fold change /veh GIMAP4 (11747438_a_at) / RFU KRT8 (11758183_x_at) / Fold change /veh KRT8 (11758183_x_at) / RFU CNN1 (11734310_a_at) / Fold change /veh CNN1 (11734310_a_at) / RFU VPS37D (11726825_at) / Fold change /veh VPS37D (11726825_at) / RFU C10orf10 (11716522_x_at) / Fold change /veh C10orf10 (11716522_x_at) / RFU KIR2DL2 /// KIR2DL4 /// KIR2DL5A /// KIR2DL5B /// KIR2DS1 /// KIR2DS2 /// KIR2DS3 /// KIR2DS4 /// KIR3DL3 /// KIR3DL3 /// KIR3DS1 (11738374_at) / Fold change /veh KIR2DL2 /// KIR2DL4 /// KIR2DL5A /// KIR2DL5B /// KIR2DS1 /// KIR2DS2 /// KIR2DS3 /// KIR2DS4 /// KIR3DL3 /// KIR3DL3 /// KIR3DS1 (11738374_at) / RFU C1QL1 (11718748_at) / Fold change /veh C1QL1 (11718748_at) / RFU TMPRSS4 (11747572_a_at) / Fold change /veh TMPRSS4 (11747572_a_at) / RFU HAMP (11756126_x_at) / Fold change /veh HAMP (11756126_x_at) / RFU RNFT2 (11725882_a_at) / Fold change /veh RNFT2 (11725882_a_at) / RFU NR4A2 (11747474_a_at) / Fold change /veh NR4A2 (11747474_a_at) / RFU ABCC12 (11746883_a_at) / Fold change /veh ABCC12 (11746883_a_at) / RFU TMEM136 (11760407_x_at) / Fold change /veh TMEM136 (11760407_x_at) / RFU CLDN22 /// WWC2 (11732394_at) / Fold change /veh CLDN22 /// WWC2 (11732394_at) / RFU HLA-DPB1 (11760878_x_at) / Fold change /veh HLA-DPB1 (11760878_x_at) / RFU SPINT1 (11716480_a_at) / Fold change /veh SPINT1 (11716480_a_at) / RFU GAP43 (11754022_s_at) / Fold change /veh GAP43 (11754022_s_at) / RFU A4GNT (11735810_at) / Fold change /veh A4GNT (11735810_at) / RFU PRB3 (11715151_x_at) / Fold change /veh PRB3 (11715151_x_at) / RFU TUBB4B (11761932_at) / Fold change /veh TUBB4B (11761932_at) / RFU CAPN14 (11732068_a_at) / Fold change /veh CAPN14 (11732068_a_at) / RFU TMCC2 (11721928_a_at) / Fold change /veh TMCC2 (11721928_a_at) / RFU IRGQ (11745062_a_at) / Fold change /veh IRGQ (11745062_a_at) / RFU FAM174B (11720279_a_at) / Fold change /veh FAM174B (11720279_a_at) / RFU TMPRSS4 (11748680_a_at) / Fold change /veh TMPRSS4 (11748680_a_at) / RFU FAM212B (11763350_a_at) / Fold change /veh FAM212B (11763350_a_at) / RFU PLEKHG5 (11743358_a_at) / Fold change /veh PLEKHG5 (11743358_a_at) / RFU ZSCAN30 (11745921_a_at) / Fold change /veh ZSCAN30 (11745921_a_at) / RFU CMKLR1 (11741424_a_at) / Fold change /veh CMKLR1 (11741424_a_at) / RFU LOC101060620 /// MAPK8IP1 (11723275_at) / Fold change /veh LOC101060620 /// MAPK8IP1 (11723275_at) / RFU SPTSSB (11747773_x_at) / Fold change /veh SPTSSB (11747773_x_at) / RFU PRSS12 (11739890_at) / Fold change /veh PRSS12 (11739890_at) / RFU BIN1 (11741810_x_at) / Fold change /veh BIN1 (11741810_x_at) / RFU WNT11 (11732464_a_at) / Fold change /veh WNT11 (11732464_a_at) / RFU C10orf10 (11716521_a_at) / Fold change /veh C10orf10 (11716521_a_at) / RFU C5orf56 (11738089_at) / Fold change /veh C5orf56 (11738089_at) / RFU CYB561 (11721691_x_at) / Fold change /veh CYB561 (11721691_x_at) / RFU ANKRD19P (11752326_a_at) / Fold change /veh ANKRD19P (11752326_a_at) / RFU OR2T12 /// OR2T33 /// OR2T8 (11738714_s_at) / Fold change /veh OR2T12 /// OR2T33 /// OR2T8 (11738714_s_at) / RFU VCAN (11748164_a_at) / Fold change /veh VCAN (11748164_a_at) / RFU JSRP1 (11732532_at) / Fold change /veh JSRP1 (11732532_at) / RFU KRTAP10-11 (11738290_x_at) / Fold change /veh KRTAP10-11 (11738290_x_at) / RFU MYO3A (11730013_a_at) / Fold change /veh MYO3A (11730013_a_at) / RFU EBF3 (11725865_a_at) / Fold change /veh EBF3 (11725865_a_at) / RFU CAMK2N1 (11719241_x_at) / Fold change /veh CAMK2N1 (11719241_x_at) / RFU C5orf56 (11738088_a_at) / Fold change /veh C5orf56 (11738088_a_at) / RFU OLFML3 (11715873_a_at) / Fold change /veh OLFML3 (11715873_a_at) / RFU LOC100653217 /// NTM (11731650_a_at) / Fold change /veh LOC100653217 /// NTM (11731650_a_at) / RFU MAPK11 (11762145_a_at) / Fold change /veh MAPK11 (11762145_a_at) / RFU FIZ1 (11724087_x_at) / Fold change /veh FIZ1 (11724087_x_at) / RFU OASL (11726364_x_at) / Fold change /veh OASL (11726364_x_at) / RFU SOX15 (11748057_x_at) / Fold change /veh SOX15 (11748057_x_at) / RFU CD79A (11719716_a_at) / Fold change /veh CD79A (11719716_a_at) / RFU HIST1H1D (11736915_at) / Fold change /veh HIST1H1D (11736915_at) / RFU CASKIN2 (11723855_a_at) / Fold change /veh CASKIN2 (11723855_a_at) / RFU LOC730098 (11760151_x_at) / Fold change /veh LOC730098 (11760151_x_at) / RFU OR4N2 (11742367_at) / Fold change /veh OR4N2 (11742367_at) / RFU PRRT2 (11749266_a_at) / Fold change /veh PRRT2 (11749266_a_at) / RFU SNX32 (11753110_a_at) / Fold change /veh SNX32 (11753110_a_at) / RFU CDHR5 (11726645_a_at) / Fold change /veh CDHR5 (11726645_a_at) / RFU RCAN1 (11760418_a_at) / Fold change /veh RCAN1 (11760418_a_at) / RFU FAM167A (11723789_a_at) / Fold change /veh FAM167A (11723789_a_at) / RFU FAM26E (11764081_at) / Fold change /veh FAM26E (11764081_at) / RFU ISYNA1 (11749810_s_at) / Fold change /veh ISYNA1 (11749810_s_at) / RFU ACY1 (11761880_at) / Fold change /veh ACY1 (11761880_at) / RFU 11764098_at / Fold change /veh 11764098_at / RFU SAMD14 (11745864_x_at) / Fold change /veh SAMD14 (11745864_x_at) / RFU NPB (11741838_a_at) / Fold change /veh NPB (11741838_a_at) / RFU TMPRSS6 (11731388_a_at) / Fold change /veh TMPRSS6 (11731388_a_at) / RFU KRTAP10-2 (11738614_at) / Fold change /veh KRTAP10-2 (11738614_at) / RFU ARHGAP8 /// PRR5-ARHGAP8 (11727945_x_at) / Fold change /veh ARHGAP8 /// PRR5-ARHGAP8 (11727945_x_at) / RFU KRTAP5-7 /// NADSYN1 (11734609_at) / Fold change /veh KRTAP5-7 /// NADSYN1 (11734609_at) / RFU RASL12 (11751679_a_at) / Fold change /veh RASL12 (11751679_a_at) / RFU CDKN2B (11736163_a_at) / Fold change /veh CDKN2B (11736163_a_at) / RFU PRF1 (11729649_at) / Fold change /veh PRF1 (11729649_at) / RFU, ZNF638 /// ZNF638-IT1 / Fold change vs veh, ZNF638 /// ZNF638-IT1 / RFU, PANK3 / Fold change vs veh, PANK3 / RFU, SH3YL1 / Fold change vs veh, SH3YL1 / RFU, ZEB2 / Fold change vs veh, ZEB2 / RFU, NRIP1 / Fold change vs veh, NRIP1 / RFU, PTTG1IP / Fold change vs veh, PTTG1IP / RFU, CAPN2 / Fold change vs veh, CAPN2 / RFU, MED14 / Fold change vs veh, MED14 / RFU, SNORA58 / Fold change vs veh, SNORA58 / RFU, C1orf63 / Fold change vs veh, C1orf63 / RFU, LRRFIP1 / Fold change vs veh, LRRFIP1 / RFU, NDUFAF7 / Fold change vs veh, NDUFAF7 / RFU, SLC12A2 / Fold change vs veh, SLC12A2 / RFU, IBTK / Fold change vs veh, IBTK / RFU, ESF1 / Fold change vs veh, ESF1 / Fold change vs veh, TMEM50B / RFU, TAOK1 / Fold change vs veh, TAOK1 / RFU, ACBD3 / Fold change vs veh, ACBD3 / RFU, TMA16 / Fold change vs veh, TMA16 / RFU, RWDD3 / Fold change vs veh, RWDD3 / RFU, BCAT1 / Fold change vs veh, BCAT1 / RFU, EDEM3 / Fold change vs veh, EDEM3 / RFU, TMEM33 / Fold change vs veh, TMEM33 / RFU, WDR75 / Fold change vs veh, WDR75 / RFU, AHCTF1 / Fold change vs veh, AHCTF1 / RFU, TFRC / Fold change vs veh, TFRC / RFU, ZDHHC17 / Fold change vs veh, ZDHHC17 / RFU, NOM1 / Fold change vs veh, NOM1 / RFU, ARL8B / Fold change vs veh, ARL8B / RFU, ZBTB11 / Fold change vs veh, ZBTB11 / RFU, TAMM41 / Fold change vs veh, TAMM41 / RFU, KIAA1704 /// LOC100996395 / Fold change vs veh, KIAA1704 /// LOC100996395 / RFU, ING1 / Fold change vs veh, ING1 / RFU, TRMT61B / Fold change vs veh, TRMT61B / RFU, FUBP3 / Fold change vs veh, FUBP3 / RFU, TP53 / Fold change vs veh, TP53 / RFU, TNKS2 / Fold change vs veh, TNKS2 / RFU, ZFP14 / Fold change vs veh, ZFP14 / RFU, ACTR2 / Fold change vs veh, ACTR2 / RFU, PPP3R1 / Fold change vs veh, PPP3R1 / RFU, PIK3R1 / Fold change vs veh, PIK3R1 / RFU, HNRNPA1 / Fold change vs veh, HNRNPA1 / RFU, RNF170 / Fold change vs veh, RNF170 / RFU, ZNF28 / Fold change vs veh, ZNF28 / RFU, RNGTT / Fold change vs veh, RNGTT / RFU, OGT / Fold change vs veh, OGT / RFU, BRD1 / Fold change vs veh, BRD1 / RFU, MARS / Fold change vs veh, MARS / RFU, ZNF655 / Fold change vs veh, ZNF655 / RFU, FAHD1 / Fold change vs veh, FAHD1 / RFU, BDP1 / Fold change vs veh, BDP1 / RFU, LRRCC1 / Fold change vs veh, LRRCC1 / RFU, ARID1A / Fold change vs veh, ARID1A / RFU, ZNF146 / Fold change vs veh, ZNF146 / RFU, ZNF330 / Fold change vs veh, ZNF330 / RFU, GPN3 / Fold change vs veh, GPN3 / RFU, C9orf123 / Fold change vs veh, C9orf123 / RFU, N4BP2L2 / Fold change vs veh, N4BP2L2 / RFU, ARFIP1 / Fold change vs veh, ARFIP1 / RFU, FAM179B / Fold change vs veh, FAM179B / RFU, BCL10 / Fold change vs veh, BCL10 / RFU, UHRF1BP1L / Fold change vs veh, UHRF1BP1L / RFU, BET1 / Fold change vs veh, BET1 / RFU, CNOT2 / Fold change vs veh, CNOT2 / RFU, ZNF268 / Fold change vs veh, ZNF268 / Fold change vs veh, ZNF507 / RFU, DGCR2 / Fold change vs veh, DGCR2 / RFU, WDSUB1 / Fold change vs veh, WDSUB1 / Fold change vs veh, HSP90B1 /// MIR3652 / RFU, ADSS / Fold change vs veh, ADSS / RFU, GK / Fold change vs veh, GK / RFU, ZNF148 / Fold change vs veh, ZNF148 / RFU, TAF9 / Fold change vs veh, TAF9 / RFU, SLC1A5 / Fold change vs veh, SLC1A5 / RFU, SLMO2 / Fold change vs veh, SLMO2 / RFU, ABCC4 / Fold change vs veh, ABCC4 / RFU, LOC101060439 /// RAP1B / Fold change vs veh, LOC101060439 /// RAP1B / RFU, RFX7 / Fold change vs veh, RFX7 / RFU, GTPBP10 / Fold change vs veh, GTPBP10 / RFU, CNEP1R1 / Fold change vs veh, CNEP1R1 / RFU, BIVM-ERCC5 /// ERCC5 / Fold change vs veh, BIVM-ERCC5 /// ERCC5 / RFU, ILF3 / Fold change vs veh, ILF3 / RFU 11762660_at / Fold change /veh 11762660_at / RFU VCAN (11757783_s_at) / Fold change /veh VCAN (11757783_s_at) / RFU DDX43 (11728927_at) / Fold change /veh DDX43 (11728927_at) / RFU KRT8 (11758188_x_at) / Fold change /veh KRT8 (11758188_x_at) / RFU NKD1 (11759106_at) / Fold change /veh NKD1 (11759106_at) / RFU SRD5A1 (11742802_a_at) / Fold change /veh SRD5A1 (11742802_a_at) / RFU TPSAB1 /// TPSB2 (11721975_s_at) / Fold change /veh TPSAB1 /// TPSB2 (11721975_s_at) / RFU GSTM3 (11746129_a_at) / Fold change /veh GSTM3 (11746129_a_at) / RFU IL23R (11737362_x_at) / Fold change /veh IL23R (11737362_x_at) / RFU TMEM51 (11727254_a_at) / Fold change /veh TMEM51 (11727254_a_at) / RFU PIWIL2 (11732686_x_at) / Fold change /veh PIWIL2 (11732686_x_at) / RFU ORM1 (11744905_x_at) / Fold change /veh ORM1 (11744905_x_at) / RFU CCDC152 (11743942_at) / Fold change /veh CCDC152 (11743942_at) / RFU ECM1 (11717891_a_at) / Fold change /veh ECM1 (11717891_a_at) / RFU IL23R (11748794_a_at) / Fold change /veh IL23R (11748794_a_at) / RFU TNFAIP8L3 (11732012_x_at) / Fold change /veh TNFAIP8L3 (11732012_x_at) / RFU MBOAT4 (11741988_at) / Fold change /veh MBOAT4 (11741988_at) / RFU 11764193_at / Fold change /veh 11764193_at / RFU TMEM53 (11763286_at) / Fold change /veh TMEM53 (11763286_at) / RFU MAGEB2 (11727129_at) / Fold change /veh MAGEB2 (11727129_at) / RFU TMEM200A (11744735_a_at) / Fold change /veh TMEM200A (11744735_a_at) / RFU CCDC152 (11751479_a_at) / Fold change /veh CCDC152 (11751479_a_at) / RFU FAM211A (11726209_a_at) / Fold change /veh FAM211A (11726209_a_at) / RFU RGS16 (11746705_a_at) / Fold change /veh RGS16 (11746705_a_at) / RFU VCAN (11755009_s_at) / Fold change /veh VCAN (11755009_s_at) / RFU RHOB (11743442_s_at) / Fold change /veh RHOB (11743442_s_at) / RFU RGS16 (11720943_a_at) / Fold change /veh RGS16 (11720943_a_at) / RFU RGS16 (11720944_at) / Fold change /veh RGS16 (11720944_at) / RFU, VPS4B / Fold change vs veh, VPS4B / RFU, CREB1 / Fold change vs veh, CREB1 / RFU, DNAJC13 / Fold change vs veh, DNAJC13 / RFU, GNAQ / Fold change vs veh, GNAQ / RFU, CDK5R1 / Fold change vs veh, CDK5R1 / RFU, ZRANB3 / Fold change vs veh, ZRANB3 / RFU, CUL4A / Fold change vs veh, CUL4A / RFU, CCNY / Fold change vs veh, CCNY / RFU, UFL1 / Fold change vs veh, UFL1 / RFU, COG3 / Fold change vs veh, COG3 / RFU, DIAPH2 / Fold change vs veh, DIAPH2 / RFU, SKA2 / Fold change vs veh, SKA2 / RFU, AFF3 / Fold change vs veh, AFF3 / RFU, LMF1 / Fold change vs veh, LMF1 / RFU, IPO11 / Fold change vs veh, IPO11 / RFU, DFFB / Fold change vs veh, DFFB / RFU, FOXP1 / Fold change vs veh, FOXP1 / RFU, CARD8 / Fold change vs veh, CARD8 / RFU, STRN3 / Fold change vs veh, STRN3 / RFU, ADK / Fold change vs veh, ADK / RFU, RASSF2 / Fold change vs veh, RASSF2 / RFU, WIPF1 / Fold change vs veh, WIPF1 / RFU, LARP1B / Fold change vs veh, LARP1B / RFU, RASA1 / Fold change vs veh, RASA1 / RFU, RB1 / Fold change vs veh, RB1 / RFU, PPFIA1 / Fold change vs veh, PPFIA1 / RFU, MAT2A / Fold change vs veh, MAT2A / RFU, CCT5 / Fold change vs veh, CCT5 / RFU, WDR92 / Fold change vs veh, WDR92 / RFU, CUX1 / Fold change vs veh, CUX1 / RFU, TTC7A / Fold change vs veh, TTC7A / RFU, TMEM135 / Fold change vs veh, TMEM135 / RFU, DEPTOR / Fold change vs veh, DEPTOR / RFU, CPM / Fold change vs veh, CPM / RFU, DNAJB6 / Fold change vs veh, DNAJB6 / RFU, CACNA2D3 / Fold change vs veh, CACNA2D3 / RFU, DTX4 / Fold change vs veh, DTX4 / RFU, TFCP2 / Fold change vs veh, TFCP2 / RFU, GMCL1 /// GMCL1P1 / Fold change vs veh, GMCL1 /// GMCL1P1 / RFU, AEBP2 / Fold change vs veh, AEBP2 / RFU, SNHG1 /// SNORD22 /// SNORD25 /// SNORD26 /// SNORD27 /// SNORD28 /// SNORD29 /// SNORD31 / Fold change vs veh, SNHG1 /// SNORD22 /// SNORD25 /// SNORD26 /// SNORD27 /// SNORD28 /// SNORD29 /// SNORD31 / Fold change (Aza/veh), C12orf56 (ProbeSet 11735607_a_at) / Fold change (ACY-1035/veh), C12orf56 (ProbeSet 11735607_a_at) / Fold change (Aza/veh), FGFR1OP (ProbeSet 11751329_s_at) / Fold change (ACY-1035/veh), FGFR1OP (ProbeSet 11751329_s_at) / Fold change (Aza/veh), VPS36 (ProbeSet 11739960_a_at) / Fold change (ACY-1035/veh), VPS36 (ProbeSet 11739960_a_at) / RFU SYPL1 (11715823_x_at) / Fold change /veh SYPL1 (11715823_x_at) / RFU IGFBP7 (11715501_s_at) / Fold change /veh IGFBP7 (11715501_s_at) / RFU REEP3 (11722064_at) / Fold change /veh REEP3 (11722064_at) / RFU IGLL1 (11728026_x_at) / Fold change /veh IGLL1 (11728026_x_at): dose or concentration left out as unconfirmed
# Details: ProbeSet 11731461_x_at; LIST D
smiles,measurement,value
Nc1ncn([C@@H]2O[C@H](CO)[C@@H](O)[C@H]2O)c(=O)n1 [azacitidine],"RFU, CPM",125.18 RFU
